Patent publication US6727264B1 (Synaptic Pharmaceutical Corporation, priority 2001, dated 2004)
Like-named read-outs stand apart in the source and are kept apart here.

Target: rat MCH-1 (Rattus norvegicus, UniProt P97639)
Test: Radioligand binding assay at cloned rat MCH1 receptor ([3H] Compound A)
Set-up: host or cells: Peak rapid 293 (Peakr293) cells, transient calcium phosphate transfection, membranes
Conditions: cloned rat MCH1 receptor, 0.08 nM [3H] Compound A, read-out: Ki (nM) rMCH1

Chain of rat MCH-1 (P97639 whole entry): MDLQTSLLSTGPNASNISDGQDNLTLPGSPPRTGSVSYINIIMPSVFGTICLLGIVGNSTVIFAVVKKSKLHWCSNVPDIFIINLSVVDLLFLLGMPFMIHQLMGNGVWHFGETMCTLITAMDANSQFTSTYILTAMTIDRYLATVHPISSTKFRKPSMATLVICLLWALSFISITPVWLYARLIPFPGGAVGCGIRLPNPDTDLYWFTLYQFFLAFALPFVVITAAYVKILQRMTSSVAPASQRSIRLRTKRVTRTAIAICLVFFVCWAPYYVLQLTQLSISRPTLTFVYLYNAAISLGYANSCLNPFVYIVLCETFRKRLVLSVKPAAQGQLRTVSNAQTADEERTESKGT

| Structure (SMILES) | Ki (Peakr293 cell membranes) [nM] | Ki (membranes from Peakr293 cells) [nM] |
| --- | --- | --- |
| CC(C)C(=O)Nc1cccc(C2CCN(CCc3cn(C)c4ccccc34)CC2)c1 [Example 410] | 263 | – |
| Cc1ccc2[nH]cc(CCN3CCC(c4cccc(NC(=O)C(C)C)c4)CC3)c2c1 [Example 411] | 82.3 | – |
| CC(C)C(=O)Nc1cccc(C2CCN(CCc3c[nH]c4ccc(OC(F)(F)F)cc34)CC2)c1 [Example 412] | 27 | – |
| CC(C)C(=O)Nc1cccc(C2CCN(CCCc3c[nH]c4c3ccc3ccccc34)CC2)c1 [Example 413] | 76.8 | – |
| Cc1cccc2c(CCCN3CCC(c4cccc(NC(=O)C(C)C)c4)CC3)c[nH]c12 [Example 417] | 20.5 | – |
| COc1cccc2c(CCCN3CCC(c4cccc(NC(=O)C(C)C)c4)CC3)c[nH]c12 [Example 418] | 51.6 | – |
| COc1cccc2c(CCN3CCC(c4cccc(NC(=O)C(C)C)c4)CC3)c[nH]c12 [Example 419] | 83.9 | – |
| Cc1ccc(-n2cc(CN3CCC(c4ccc(NC(=O)C(C)C)cc4)CC3)c3ccccc32)cc1 [Example 422] | 173 | – |
| CCCC(=O)Nc1ccc(C2CCN(Cc3cn(-c4ccc(C)cc4)c4ccccc34)CC2)cc1 [Example 423] | 405 | – |
| CC(C)C(=O)Nc1cccc(C2CCN(Cc3c(-c4ccccc4N)[nH]c4ccccc34)CC2)c1 [Example 424] | 114 | – |
| CCOC(=O)c1[nH]c2ccccc2c1CN1CCC(c2cccc(NC(=O)C(C)C)c2)CC1 [Example 425, ETHYL 3-({4-[3-(ISOBUTYRYLAMINO)PHENYL]-1-PIPERIDINYL}METHYL)-1H-INDOLE-2-CARBOXYLATE] | 599 | – |
| CC(C)C(=O)Nc1cccc(C2CCN(Cc3cn(C)c4ccccc34)CC2)c1 [Example 426] | 556 | – |
| COc1ccc2[nH]c(C)c(CN3CCC(c4cccc(NC(=O)C(C)C)c4)CC3)c2c1 [Example 427] | 248 | – |
| CC(C)C(=O)Nc1cccc(C2CCN(Cc3c(-c4ccccc4)n(C)c4ccccc34)CC2)c1 [Example 428] | 132 | – |
| CC(C)C(=O)Nc1cccc(C2CCN(Cc3c[nH]c4ccc([N+](=O)[O-])cc34)CC2)c1 [Example 429] | 121 | – |
| Cc1[nH]c2ccccc2c1CN1CCC(c2cccc(NC(=O)C(C)C)c2)CC1 [Example 430] | 647 | – |
| CC(C)C(=O)Nc1cccc(C2CCN(Cc3c[nH]c4cccc(Br)c34)CC2)c1 [Example 431] | 968 | – |
| CC(C)C(=O)Nc1cccc(C2CCN(Cc3c(-c4ccc(F)cc4)[nH]c4ccccc34)CC2)c1 [Example 432] | 198 | – |
| CC(C)C(=O)Nc1cccc(C2CCN(Cc3c(-c4ccccc4)n(-c4ccccc4)c4ccccc34)CC2)c1 [Example 433] | 30.4 | – |
| CCn1c(-c2ccc(Cl)cc2)c(CN2CCC(c3cccc(NC(=O)C(C)C)c3)CC2)c2ccccc21 [Example 434] | 214 | – |
| Cc1[nH]c2ccc(Cl)cc2c1CN1CCC(c2cccc(NC(=O)C(C)C)c2)CC1 [Example 435] | 215 | – |
| CC(C)C(=O)Nc1cccc(C2CCN(Cc3c[nH]c4ccc(C#N)cc34)CC2)c1 [Example 436] | 434 | – |

| Structure (SMILES) | Ki (Peakr293 cell membranes) [nM] | Ki (membranes from Peakr293 cells) [nM] |
| --- | --- | --- |
| Cc1ccc2[nH]c(-c3ccccc3)c(CN3CCC(c4cccc(NC(=O)C(C)C)c4)CC3)c2c1 [Example 437] | 552 | – |
| COc1cc2[nH]cc(CN3CCC(c4cccc(NC(=O)C(C)C)c4)CC3)c2cc1OC [Example 440] | 107 | – |
| COc1ccc(-n2cc(CN3CCC(c4cccc(NC(=O)C(C)C)c4)CC3)c3ccccc32)cc1 [Example 443] | 23.4 | – |
| COc1ccc2[nH]c(-c3ccccc3)c(CN3CCC(c4cccc(NC(=O)C(C)C)c4)CC3)c2c1 [Example 444] | 545 | – |
| Cc1ccc2[nH]cc(CN3CCC(c4cccc(NC(=O)C(C)C)c4)CC3)c2c1 [Example 445] | 486 | – |
| CC(C)C(=O)Nc1cccc(C2CCN(Cc3cn(-c4ccccc4C(F)(F)F)c4ccccc34)CC2)c1 [Example 448] | 61 | 61 |
| COc1ccc2[nH]cc(CN3CCC(c4cccc(NC(=O)C(C)C)c4)CC3)c2c1 [Example 449] | 623 | 623 |
| COc1cccc(-n2cc(CN3CCC(c4cccc(NC(=O)C(C)C)c4)CC3)c3ccccc32)c1 [Example 451] | 18.7 | – |
| CCOC(=O)c1[nH]c2ccc(OC)cc2c1CN1CCC(c2cccc(NC(=O)C(C)C)c2)CC1 [Example 453, ETHYL 3-({4-[3-(ISOBUTYRYLAMINO)PHENYL]-1-PIPERIDINYL}METHYL)-5-METHOXY-1H-INDOLE-2-CARBOXYLATE] | 195 | – |
| CC(C)C(=O)Nc1cccc(C2CCN(Cc3c[nH]c4ccc(F)cc34)CC2)c1 [Example 454] | 772 | – |
| CCC(=O)Nc1cccc(C2CCN(Cc3cn(-c4cccc(Cl)c4)c4ccccc34)CC2)c1 [Example 456] | 28 | – |
| O=C(Nc1cccc(C2CCN(Cc3cn(-c4ccccc4Cl)c4ccccc34)CC2)c1)C1CC1 [Example 457] | 27.4 | – |
| CCC(=O)Nc1cccc(C2CCN(Cc3cn(-c4ccccc4Cl)c4ccccc34)CC2)c1 [Example 461] | 35.6 | – |
| CCC(=O)Nc1cccc(C2CCN(Cc3cn(-c4ccccc4)c4ccccc34)CC2)c1 [Example 464] | 84.1 | – |
| CCC(=O)Nc1cccc(C2CCN(Cc3c[nH]c4cc(F)ccc34)CC2)c1 [Example 468] | 912 | – |
| O=C(Nc1cccc(C2CCN(Cc3c[nH]c4cc(F)ccc34)CC2)c1)C1CC1 [Example 469] | 479 | – |
| CC(C)C(=O)Nc1cccc(C2CCN(Cc3c[nH]c4cc(F)ccc34)CC2)c1 [Example 470] | 654 | – |
| O=C(Nc1cccc(C2CCN(Cc3c[nH]c4ccc(F)cc34)CC2)c1)C1CC1 [Example 481] | 664 | – |
| Cc1ccc2c(CN3CCC(c4cccc(NC(=O)C(C)C)c4)CC3)c[nH]c2c1 [Example 495] | 95.1 | – |
| CC(C)C(=O)Nc1cccc(C2CCN(Cc3c[nH]c4cc(OCc5ccccc5)ccc34)CC2)c1 [Example 496] | 288 | – |
| COc1ccc2c(CN3CCC(c4cccc(NC(=O)C(C)C)c4)CC3)c[nH]c2c1 [Example 497] | 97.7 | – |

These reach a lower Ki (Peakr293 cell membranes). Values come first.

| Ki (Peakr293 cell membranes) [nM] | Ki (membranes from Peakr293 cells) [nM] | Structure (SMILES) |
| --- | --- | --- |
| 2.9 | – | CC(C)C(=O)Nc1cccc(C2CCN(CCCc3cn(C)c4ccccc34)CC2)c1 [Example 414] |
| 8.1 | – | Cc1ccc2[nH]cc(CCCN3CCC(c4cccc(NC(=O)C(C)C)c4)CC3)c2c1 [Example 415] |
| 12.6 | – | CC(C)C(=O)Nc1cccc(C2CCN(CCCc3c[nH]c4ccc(OC(F)(F)F)cc34)CC2)c1 [Example 416] |
| 1.8 | – | Cc1ccc2[nH]c(-c3ccccc3)c(CCCCN3CCC(c4cccc(NC(=O)C(C)C)c4)CC3)c2c1 [Example 421] |
| 1.3 | – | CC(C)C(=O)Nc1cccc(C2CCN(Cc3cn(-c4ccc([N+](=O)[O-])cc4)c4ccccc34)CC2)c1 [Example 438] |
| 8.5 | – | CC(C)C(=O)Nc1cccc(C2CCN(Cc3cn(-c4ccccc4F)c4ccccc34)CC2)c1 [Example 439] |
| 10.1 | – | Cc1cccc(-n2cc(CN3CCC(c4cccc(NC(=O)C(C)C)c4)CC3)c3ccccc32)c1 [Example 441] |
| 7.8 | – | CC(C)C(=O)Nc1cccc(C2CCN(Cc3cn(-c4cccc(C(F)(F)F)c4)c4ccccc34)CC2)c1 [Example 442] |
| 17.9 | – | CC(C)C(=O)Nc1cccc(C2CCN(Cc3cn(-c4ccccc4[N+](=O)[O-])c4ccccc34)CC2)c1 [Example 446] |
| 9.8 | – | COc1ccccc1-n1cc(CN2CCC(c3cccc(NC(=O)C(C)C)c3)CC2)c2ccccc21 [Example 447] |
| 7.1 | – | CC(C)C(=O)Nc1cccc(C2CCN(Cc3cn(-c4ccc(F)cc4)c4ccccc34)CC2)c1 [Example 450] |
| 12.7 | – | Cc1ccccc1-n1cc(CN2CCC(c3cccc(NC(=O)C(C)C)c3)CC2)c2ccccc21 [Example 452] |
| 10.6 | – | CCC(=O)Nc1cccc(C2CCN(Cc3cn(-c4ccc(Cl)cc4)c4ccccc34)CC2)c1 [Example 455] |
| 15.3 | – | CC(C)C(=O)Nc1cccc(C2CCN(Cc3cn(-c4cccc(Cl)c4)c4ccccc34)CC2)c1 [Example 458] |
| 10.4 | – | CC(C)C(=O)Nc1cccc(C2CCN(Cc3cn(-c4ccc(Cl)cc4)c4ccccc34)CC2)c1 [Example 459] |
| 9.1 | – | CC(C)C(=O)Nc1cccc(C2CCN(Cc3cn(-c4ccccc4Cl)c4ccccc34)CC2)c1 [Example 460] |
| 12.4 | – | O=C(Nc1cccc(C2CCN(Cc3cn(-c4ccc(Cl)cc4)c4ccccc34)CC2)c1)C1CC1 [Example 462] |
| 17.2 | – | O=C(Nc1cccc(C2CCN(Cc3cn(-c4cccc(Cl)c4)c4ccccc34)CC2)c1)C1CC1 [Example 463] |
| 10.7 | – | O=C(Nc1cccc(C2CCN(Cc3cn(-c4ccccc4)c4ccccc34)CC2)c1)C1CC1 [Example 465] |
| 4.3 | – | CC(C)C(=O)Nc1cccc(C2CCN(Cc3cn(-c4ccc(F)cc4)c4cc(Cl)ccc34)CC2)c1 [Example 471] |
| 12.2 | – | CCC(=O)Nc1cccc(C2CCN(Cc3cn(-c4ccccc4F)c4cc(Cl)ccc34)CC2)c1 [Example 472] |
| 11.3 | – | O=C(Nc1cccc(C2CCN(Cc3cn(-c4ccccc4F)c4cc(Cl)ccc34)CC2)c1)C1CC1 [Example 473] |
| 13.3 | – | CC(C)C(=O)Nc1cccc(C2CCN(Cc3cn(-c4ccccc4F)c4cc(Cl)ccc34)CC2)c1 [Example 474] |
| 12.4 | – | CCC(=O)Nc1cccc(C2CCN(Cc3cn(-c4ccc(Cl)cc4)c4cc(Cl)ccc34)CC2)c1 [Example 475] |
| 12.7 | – | O=C(Nc1cccc(C2CCN(Cc3cn(-c4ccc(Cl)cc4)c4cc(Cl)ccc34)CC2)c1)C1CC1 [Example 476] |
| 14.9 | – | CC(C)C(=O)Nc1cccc(C2CCN(Cc3cn(-c4ccc(Cl)cc4)c4cc(Cl)ccc34)CC2)c1 [Example 477] |
| 11.7 | – | CCC(=O)Nc1cccc(C2CCN(Cc3cn(-c4cccc(Cl)c4)c4cc(Cl)ccc34)CC2)c1 [Example 478] |
| 8.1 | – | O=C(Nc1cccc(C2CCN(Cc3cn(-c4cccc(Cl)c4)c4cc(Cl)ccc34)CC2)c1)C1CC1 [Example 479] |
| 9 | – | CC(C)C(=O)Nc1cccc(C2CCN(Cc3cn(-c4cccc(Cl)c4)c4cc(Cl)ccc34)CC2)c1 [Example 480] |
